Measurements as given in ChEMBL document CHEMBL5329202, “New aryl-/heteroarylpiperazine derivatives of 1,7-dimethyl-8,9-diphenyl-4-azatricyclo[5.2.1.02,6]dec-8-ene-3,5,10-trione: Synthesis and preliminary studies of biological activities” (Bioorg Med Chem, 2023).

What was measured:
[1] = tested on: K562; experiment: Cytotoxicity against human K562 cells assessed as cell growth inhibition measured after 72 hrs by MTT assay; assay type: functional, cell-based; conditions: K562, 72 h
[2] = tested on: MDA-MB-231; experiment: Cytotoxicity against human MDA-MB-231 cells assessed as cell growth inhibition measured after 72 hrs by MTT assay; assay type: functional, cell-based; conditions: MDA-MB-231, 72 h
[3] = tested on: HMEC-1; experiment: Antiproliferative activity against human HMEC-1 cells assessed as reduction in cell viability at IC50 measured after 72 hrs by trypan blue dye based assay relative to control; assay type: toxicity; conditions: hmec-1, 72 h
[4] = tested on: HepG2; experiment: Cytotoxicity against human HepG2 cells assessed as cell growth inhibition measured after 72 hrs by MTT assay; assay type: functional, cell-based; conditions: HepG2, 72 h
[5] = tested on: HCT-116; experiment: Antiproliferative activity against human HCT-116 cells assessed as reduction in cell viability at IC50 measured after 72 hrs by trypan blue dye based assay relative to control; assay type: functional
[6] = tested on: K562; experiment: Induction of apoptosis in human K562 cells assessed as increase in caspase-3/7 activity at IC50 incubated for 24 hrs by Glo assay relative to control; assay type: functional
[7] = tested on: K562; experiment: Induction of apoptosis in human K562 cells assessed as late apoptotic cells at IC50 incubated for 72 hrs by Annexin V-FITC/PI staining based flow cytometric analysis (reference value: […]); assay type: functional
[8] = tested on: HMEC-1; experiment: Induction of apoptosis in human HMEC-1 cells assessed as late apoptotic cells at IC50 incubated for 72 hrs by Annexin V-FITC/PI staining based flow cytometric analysis (reference value: 4.7 %); assay type: functional
[9] = tested on: HCT-116; experiment: Cytotoxicity against human HCT-116 cells assessed as cell growth inhibition measured after 72 hrs by MTT assay; assay type: functional, cell-based; conditions: HCT-116, 72 h
[10] = Selectivity index, ratio of IC50 for cytotoxicity against human HMEC-1 cells to IC50 for cytotoxicity against human SW620 cells
[11] = target: D(2) dopamine receptor (Rattus norvegicus, UniProt P61169); experiment: Antagonist activity at Sprague-Dawley rat striatum membrane D2 receptor assessed as inhibition of dopamine stimulated [35S]GTPgammaS binding measured after 90 mins by scintillation counter analysis; assay type: functional, cell membranes
Chain of D(2) dopamine receptor (P61169 whole entry): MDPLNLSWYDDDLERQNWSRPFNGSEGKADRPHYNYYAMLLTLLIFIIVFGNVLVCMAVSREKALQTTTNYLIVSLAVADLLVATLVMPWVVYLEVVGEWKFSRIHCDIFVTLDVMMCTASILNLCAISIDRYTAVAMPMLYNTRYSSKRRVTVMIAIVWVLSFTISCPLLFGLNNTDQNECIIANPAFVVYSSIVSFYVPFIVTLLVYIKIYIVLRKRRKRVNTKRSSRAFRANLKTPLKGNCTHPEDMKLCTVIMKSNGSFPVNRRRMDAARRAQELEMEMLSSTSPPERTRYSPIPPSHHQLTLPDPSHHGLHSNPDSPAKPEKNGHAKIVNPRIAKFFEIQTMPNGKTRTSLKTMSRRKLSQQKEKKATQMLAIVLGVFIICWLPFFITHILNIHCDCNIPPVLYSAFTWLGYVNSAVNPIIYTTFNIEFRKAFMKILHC

[12] = Selectivity index, ratio of IC50 for cytotoxicity against human HMEC-1 cells to IC50 for cytotoxicity against human K562 cells; assay type: toxicity, cell-based; conditions: HMEC-1 cells and K562 cells, read-out: Ratio IC50
[13] = Selectivity index, ratio of IC50 for cytotoxicity against human HMEC-1 cells to IC50 for cytotoxicity against human PC-3 cells; assay type: toxicity, cell-based; conditions: HMEC-1 cells and PC-3 cells, read-out: Ratio IC50
[14] = tested on: HCT-116; experiment: Antiproliferative activity against human HCT-116 cells assessed as reduction in cell number at IC50 measured after 72 hrs by trypan blue dye based assay relative to control; assay type: functional; set-up: scale not given: the % may be the effect or the level left
[15] = Cytotoxicity against human HMEC-1 cells assessed as cell growth inhibition measured after 72 hrs by MTT assay; assay type: toxicity, cell-based
[16] = tested on: A549; experiment: Cytotoxicity against human A549 cells assessed as cell growth inhibition measured after 72 hrs by MTT assay; assay type: functional, cell-based; conditions: A549, 72 h
[17] = target: T1, 5-hydroxytryptamine receptor 1A (Rattus norvegicus, UniProt P19327); experiment: Agonist activity at Sprague-Dawley rat hippocampal membrane 5-HT1A receptor assessed as stimulation of [35S]GTPgammaS binding measured after 90 mins by scintillation counter analysis; assay type: functional, cell membranes, Hippocampus
T1 sequence (P19327 whole entry): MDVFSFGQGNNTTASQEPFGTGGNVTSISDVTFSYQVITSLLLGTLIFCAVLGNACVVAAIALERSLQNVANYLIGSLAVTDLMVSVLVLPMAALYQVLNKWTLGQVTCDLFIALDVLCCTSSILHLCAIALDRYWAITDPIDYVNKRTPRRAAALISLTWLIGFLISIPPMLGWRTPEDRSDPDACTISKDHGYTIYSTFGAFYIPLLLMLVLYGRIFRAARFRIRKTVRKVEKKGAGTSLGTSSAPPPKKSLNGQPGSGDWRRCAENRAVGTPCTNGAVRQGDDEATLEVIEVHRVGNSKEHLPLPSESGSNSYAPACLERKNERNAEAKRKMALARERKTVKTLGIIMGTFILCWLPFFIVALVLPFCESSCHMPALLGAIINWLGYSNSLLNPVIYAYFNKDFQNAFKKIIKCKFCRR

[18] = target: Histamine H1 receptor (Rattus norvegicus, UniProt P31390); experiment: Displacement of [3H]pyrilamine from Sprague-Dawley rat H1 receptor assessed as inhibition constant measured after 30 mins by competitive binding assay
Chain of Histamine H1 receptor (P31390 whole entry): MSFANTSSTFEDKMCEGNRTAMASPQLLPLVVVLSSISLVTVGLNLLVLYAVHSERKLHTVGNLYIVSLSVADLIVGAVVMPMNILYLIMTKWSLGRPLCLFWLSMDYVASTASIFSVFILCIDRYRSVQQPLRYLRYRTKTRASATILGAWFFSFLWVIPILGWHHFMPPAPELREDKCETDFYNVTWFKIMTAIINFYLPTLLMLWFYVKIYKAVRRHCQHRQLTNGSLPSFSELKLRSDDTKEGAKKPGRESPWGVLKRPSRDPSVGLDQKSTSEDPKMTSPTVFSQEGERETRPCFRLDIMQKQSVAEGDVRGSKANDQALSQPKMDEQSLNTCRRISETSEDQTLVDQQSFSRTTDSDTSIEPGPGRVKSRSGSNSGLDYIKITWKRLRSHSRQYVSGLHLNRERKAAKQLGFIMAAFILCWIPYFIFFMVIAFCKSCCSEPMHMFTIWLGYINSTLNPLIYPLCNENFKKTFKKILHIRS

[19] = tested on: HCT-116; experiment: Induction of apoptosis in human HCT-116 cells assessed as viable cells at IC50 incubated for 72 hrs by Annexin V-FITC/PI staining based flow cytometric analysis (reference value: 90.5 %); assay type: functional
[20] = tested on: HCT-116; experiment: Induction of apoptosis in human HCT-116 cells assessed as necrotic cells at IC50 incubated for 72 hrs by Annexin V-FITC/PI staining based flow cytometric analysis (reference value: 0.1 %); assay type: functional
[21] = Selectivity index, ratio of IC50 for cytotoxicity against human HMEC-1 cells to IC50 for cytotoxicity against human A549 cells; assay type: toxicity, cell-based; conditions: HMEC-1 cells and A549 cells, read-out: Ratio IC50
[22] = tested on: HMEC-1; experiment: Induction of apoptosis in human HMEC-1 cells assessed as viable cells at IC50 incubated for 72 hrs by Annexin V-FITC/PI staining based flow cytometric analysis (reference value: 90.6 %); assay type: functional
[23] = Selectivity index, ratio of IC50 for cytotoxicity against human HMEC-1 cells to IC50 for cytotoxicity against human SW480 cells
[24] = tested on: SW480; experiment: Cytotoxicity against human SW480 cells assessed as cell growth inhibition measured after 72 hrs by MTT assay; assay type: functional, cell-based; conditions: SW480, 72 h
[25] = tested on: SW-620; experiment: Cytotoxicity against human SW620 cells assessed as cell growth inhibition measured after 72 hrs by MTT assay; assay type: functional, cell-based; conditions: SW-620, 72 h
[26] = Selectivity index, ratio of IC50 for cytotoxicity against human HMEC-1 cells to IC50 for cytotoxicity against human HepG2 cells; assay type: toxicity, cell-based; conditions: HMEC-1 cells and HepG2 cells, read-out: Ratio IC50
[27] = tested on: HCT-116; experiment: Induction of apoptosis in human HCT-116 cells assessed as early apoptotic cells at IC50 incubated for 72 hrs by Annexin V-FITC/PI staining based flow cytometric analysis (reference value: 7.8 %); assay type: functional
[28] = tested on: K562; experiment: Antiproliferative activity against human K562 cells assessed as reduction in cell number at IC50 measured after 72 hrs by trypan blue dye based assay relative to control; assay type: functional; set-up: scale not given: the % may be the effect or the level left
[29] = tested on: HMEC-1; experiment: Induction of apoptosis in human HMEC-1 cells assessed as early apoptotic cells at IC50 incubated for 72 hrs by Annexin V-FITC/PI staining based flow cytometric analysis (reference value: 2.4 %); assay type: functional
[30] = tested on: K562; experiment: Induction of apoptosis in human K562 cells assessed as viable cells at IC50 incubated for 72 hrs by Annexin V-FITC/PI staining based flow cytometric analysis (reference value: 89 %); assay type: functional
[31] = Selectivity index, ratio of IC50 for cytotoxicity against human HMEC-1 cells to IC50 for cytotoxicity against human MDA-MB-231 cells; assay type: toxicity, cell-based; conditions: HMEC-1 cells and MDA-MB-231 cells, read-out: Ratio IC50
[32] = tested on: HCT-116; experiment: Induction of apoptosis in human HCT-116 cells assessed as late apoptotic cells at IC50 incubated for 72 hrs by Annexin V-FITC/PI staining based flow cytometric analysis (reference value: 1.6 %); assay type: functional

Row | IC50 [11] [µM] | EC50 [17] [µM] | Ki [18] [µM] | Structure (SMILES) | IC50 [1] [µM] | IC50 [2] [µM] | Activity [3] | IC50 [4] [µM] | Activity [5] [%] | Activity [6] [%] | Activity [7] [%] | Activity [8] [%] | IC50 [9] [µM] | Ratio IC50 [10] | selectivity ratio [12] | selectivity ratio [13] | Activity [14] [%] | IC50 at 72 h [15] [µM] | IC50 [16] [µM] | Activity [19] [%] | Activity [20] [%] | further results
1 | 24.8 | 0.6 | 0.08 | CC12C(=O)C(C)(C(c3ccccc3)=C1c1ccccc1)C1C(=O)N(CCCCN3CCN(c4cccc(Cl)c4)CC3)C(=O)C12 (stereo unspecified) | 4.38 | 40.6 | Non-Toxic | 14.1 | 16 | 74 | 25.4 | 7.8 | 6.19 | 1.38 | 5.01 | 2.55 | 26 | 21.9 | 25.6 | 81.5 | 0.3 | selectivity ratio [21]: 0.86; Activity [22]: 86.8%; Ratio IC50 [23]: 2.64; IC50 [24]: 8.3 µM; IC50 [25]: 15.9 µM; selectivity ratio [26]: 1.55; Activity [27]: 15.7%; Activity [28]: 82%; Activity [29]: 3.5%; Activity [30]: 59.5%; selectivity ratio [31]: 0.54; Activity [32]: 2.5%
2 | 50.3 | 0.7 | 0.6 | CC12C(=O)C(C)(C(c3ccccc3)=C1c1ccccc1)C1C(=O)N(CCCCN3CCN(c4ccccn4)CC3)C(=O)C12 (stereo unspecified) | 8.86 | 15.2 | Non-Toxic | 14.6 | 17 | 74 | 43.8 | 1.4 | 8.38 | 2.29 | 4.13 | 1.73 | 28 | 36.6 | 16.1 | 85.5 | 0.4 | selectivity ratio [21]: 2.28; Activity [22]: 95.5%; Ratio IC50 [23]: 3.02; IC50 [24]: 12.1 µM; IC50 [25]: 16 µM; selectivity ratio [26]: 2.51; Activity [27]: 12.1%; Activity [28]: 79%; Activity [29]: 1.4%; Activity [30]: 36.1%; selectivity ratio [31]: 2.41; Activity [32]: 2.1%
3 | 18.3 | 1.7 | 0.007 | CC12C(=O)C(C)(C(c3ccccc3)=C1c1ccccc1)C1C(=O)N(CCCCN3CCN(c4ccccc4F)CC3)C(=O)C12 (stereo unspecified) | 5.65 | 56.5 | Non-Toxic | 26.8 | 35 | 74 | 27.3 | 7.3 | 4.48 | 0.79 | 3.13 | 1.92 | 35 | 17.7 | 30.7 | 74.9 | 0.2 | selectivity ratio [21]: 0.58; Activity [22]: 85.8%; Ratio IC50 [23]: 2.28; IC50 [24]: 7.75 µM; IC50 [25]: 22.4 µM; selectivity ratio [26]: 0.66; Activity [27]: 23%; Activity [28]: 82%; Activity [29]: 1.9%; Activity [30]: 56.9%; selectivity ratio [31]: 0.31; Activity [32]: 1.9%
